Experimental data reported in publication PMC12389534, “Unlocking Therapeutic Potential of Novel Thieno-Oxazepine Hybrids as Multi-Target Inhibitors of AChE/BChE and Evaluation Against Alzheimer’s Disease: In Vivo, In Vitro, Histopathological, and Docking Studies” (Pharmaceuticals, 2025).
“Also recorded” adds a separate entry of the source.

Legend:
[1] = tested on: AlCl3-induced AD rat model; experiment: Y-maze SAP test in AlCl3-induced AD rats; format: in vivo; conditions: for SAP%: mean ± SE, n = 6
Protocol: All procedures were conducted conforming to the applicable National Institutes of Health standards and regulations for the Care and Use of Laboratory Animals. In this experiment, adult male Dawley rats in excellent condition weighing between 300 and 320 g were used. The animals were acquired from the Nile Company for Pharmaceuticals and Chemical Industries (Cairo, Egypt). They were placed in a controlled laboratory setting with unrestricted access to water, a temperature range of 24 to 26 °C, and 12 h a light–dark cycle. Three rats per cage were housed in polycarbonate cages that were individually packed with paper and encased with stainless steel wire.
One kind of short-term memory that SAP can represent is spatial working memory. Three arms, designated A, B, or C, were employed in a black hardwood Y-maze with a symmetrical triangular core space. Rats were briefly positioned at the edge of one arm and given 8 min to freely navigate around the maze. When the rat’s rear paws were fully inside the arm, the entries were counted. The following formula was used to determine SAP based on the total number of arm entries and alternations: SAP (%) = [number of alternations/(total arm entries − 2)] × 100 [94].

BACE1 = experiment: Brain BACE1 level (ELISA); format: in vivo, rat; set-up: reduction of BACE1 levels: concentration or dose not given beside the values; conditions: AlCl3-induced AD rats; for BACE1 (ng/mL): mean ± SE, n = 6
Protocol: The brain tissues of the rats were removed and rigorously washed in isotonic saline 24 h after they were euthanized following the last behavioral test. For histological investigation, four brains per group were preserved for the whole night in 10% neutral buffered formalin. The remaining six brains were split into two sections each. In order to create a 10% homogenate (w/v), the first component was instantaneously homogenized using an ice-cold solution that included 300 mM sucrose and 50 mM Tris-HCl (pH 7.4). The homogenate was centrifuged at 1800× g for 10 min at 4 °C for biochemical tests, and the supernatant was thereafter kept at −20 °C. The second portion was set aside for use in RT-PCR analysis at −80 °C [94]. […]

DA = experiment: Brain DA level (fluorometric); format: in vivo, rat; conditions: AlCl3-induced AD rats; for DA (ng/g Tissue): brain tissue, mean ± SE, n = 6
Protocol: (§1) The brain tissues of the rats were removed and rigorously washed in isotonic saline 24 h after they were euthanized following the last behavioral test. For histological investigation, four brains per group were preserved for the whole night in 10% neutral buffered formalin. The remaining six brains were split into two sections each. In order to create a 10% homogenate (w/v), the first component was instantaneously homogenized using an ice-cold solution that included 300 mM sucrose and 50 mM Tris-HCl (pH 7.4). The homogenate was centrifuged at 1800× g for 10 min at 4 °C for biochemical tests, and the supernatant was thereafter kept at −20 °C. The second portion was set aside for use in RT-PCR analysis at −80 °C [94].
(§2) Brain monoamine levels were promptly assessed following the rats’ euthanasia to prevent changes in the substance’s concentration. Dopamine (DA), norepinephrine (NE), and serotonin (5-HT) fluorometric tests were conducted on brain tissue homogenate using the Ciarlone method. […] The concentrations were articulated as nanograms per gram of fresh tissue using the fluorescence of reference solutions [95].

NE = experiment: Brain NE level (fluorometric); format: in vivo, rat; conditions: AlCl3-induced AD rats; for NE (nmol/g Tissue): brain tissue, mean ± SE, n = 6
Protocol: as §1, §2

BDNF = experiment: Brain BDNF level (ELISA); format: in vivo, rat; conditions: AlCl3-induced AD rats; for BDNF (ng/mL): brain tissue, mean ± SE, n = 6
Protocol: as §1
(§3) See Supplementary Information.

AChE = format: in vivo; set-up: reduction in AChE levels: concentration or dose not given beside the values; conditions: AlCl3-induced AD rats; for AChE (ng/g Tissue): brain tissue, mean ± SE, n = 6; for reduction in AChE levels: brain
TLR4 = TLR4 mRNA expression (RT-qPCR); format: in vivo, rat; set-up: reduction of TLR4 mRNA expression: concentration or dose not given beside the values; conditions: AlCl3-induced AD rats; for TLR4: mRNA expression level, mean ± SE, n = 6
Protocol: as §1, §3

NFκβ = NFκβ mRNA expression (RT-qPCR); format: in vivo, rat; set-up: reduction of NFκβ mRNA expression: concentration or dose not given beside the values; conditions: AlCl3-induced AD rats; for NFκβ: mRNA expression level, mean ± SE, n = 6
Protocol: as §1, §3

Caspase-1 = Caspase-1 gene expression (RT-qPCR); format: in vivo, rat; set-up: reduction of Caspase-1 levels: concentration or dose not given beside the values; conditions: AlCl3-induced AD rats; for Caspase-1: gene expression, mean ± SE, n = 6
Protocol: as §1, §3

Bcl-2 = Bcl-2 gene expression (RT-qPCR); format: in vivo, rat; conditions: AlCl3-induced AD rats; for Bcl-2: gene expression, mean ± SE, n = 6
Protocol: as §1, §3

Wnt3a = experiment: Brain Wnt3a level; format: in vivo, rat; conditions: AlCl3-induced AD rats; for Wnt3a (ng/g Tissue): mean ± SE, n = 6
Protocol: as §1, §3

β-catenin = experiment: Brain β-catenin level; format: in vivo, rat; conditions: AlCl3-induced AD rats; for β-Catenin (ng/L): mean ± SE, n = 6
Protocol: as §1, §3

SOD = experiment: Brain SOD activity (colorimetric); format: in vivo, rat; conditions: brain tissue, AlCl3-induced AD rats; mean ± SE, n = 6
Protocol: as §1
(§4) The SOD enzyme activity was estimated using the Marklund et al. method, which is founded on the enzyme’s capacity to decrease the nitro blue tetrazolium dye at a wavelength of 540 nm. To evaluate the TAC, a colorimetric approach was employed to estimate the amount of hydrogen peroxide that remains after 3,5-dichloro-2-hydroxybenzene sulphonate is converted to a colored product at 660 nm.

TAC = experiment: Brain TAC (colorimetric); format: in vivo, rat; conditions: AlCl3-induced AD rats; for TAC (µmol/g Tissue): brain tissue, mean ± SE, n = 6
Protocol: as §1, §4

MDA = experiment: Brain MDA content (thiobarbituric acid method); format: in vivo, rat; set-up: reduction in MDA brain content: concentration or dose not given beside the values; conditions: AlCl3-induced AD rats; for MDA (nmol/g Tissue): brain tissue, mean ± SE, n = 6
HO-1 = HO-1 mRNA expression (RT-qPCR); format: in vivo, rat; conditions: AlCl3-induced AD rats; for HO-1: mRNA expression in brain tissue, mean ± SE, n = 6
Protocol: as §1, §3

[2] = tested on: brain tissue (CC, ST, FD, SN neurons); experiment: Histopathological examination of brain tissue; format: in vivo, rat; conditions: brain sections, AlCl3-induced AD rats; for histopathological finding in CC, ST, FD and SN (NP = nuclear pyknosis): H&E
Protocol: as §1
Brain tissue samples were stationed in 10% formalin for 24 h, washed with water, and then serially diluted with alcohol to induce dehydration. After being submerged in paraffin, the specimens were cut into segments that were 4 µm thick using a microtome.

| Structure (SMILES) | SAP% [1] | BACE1 (ng/mL) (BACE1) | elevation of DA levels (DA) | DA (ng/g Tissue) (DA) | rise in the level of NE (NE) | NE (nmol/g Tissue) (NE) | elevation of BDNF levels (BDNF) | BDNF (ng/mL) (BDNF) | AChE (ng/g Tissue) (AChE) | reduction in AChE levels (AChE) | reduction of TLR4 mRNA expression (TLR4) | TLR4 (TLR4) | reduction of NFκβ mRNA expression (NFκβ) | NFκβ (NFκβ) | reduction of Caspase-1 levels (Caspase-1) | Caspase-1 (Caspase-1) | upregulation of Bcl-2 gene expression (Bcl-2) | Bcl-2 (Bcl-2) | elevation of Wnt3a levels (Wnt3a) | Wnt3a (ng/g Tissue) (Wnt3a) | also measured |
| --- | --- | --- | --- | --- | --- | --- | --- | --- | --- | --- | --- | --- | --- | --- | --- | --- | --- | --- | --- | --- | --- |
| O=C1CN(c2ccc(O)cc2)C(=O)c2c(sc3c2CCCCC3)O1 [Compound 15, 4-(4-Hydroxyphenyl)-3,4,7,8,9,10-hexahydro-6H-cyclohepta[4,5]thieno[3,2-f][1,4]oxa-zepine-2,5-dione] | 82.5 ± 0.89 ^abc % | 10.50 ± 0.2 ^abc ng/mL | 3.8 fold | 44.92 ± 2.85 ^abc ng/g Tissue | 2.7 times | 499.8 ± 2.85 ^abc nmol/g Tissue | 2.2 fold | 94.48 ± 0.05 ^abc ng/mL | 25.73 ± 0.37 ^abc ng/g Tissue | 61.8% | 52.5% | 4.57 ± 0.09 ^abc | 64.8% | 2.98 ± 0.10 ^abc | 69.1% | 2.94 ± 0.110 ^abc | 7.1 fold | 0.86 ± 0.020 ^abc | 7.3 fold | 0.88 ± 0.01 ^abc ng/g Tissue | increase in SAP% [1]: ~34.8%; reduction of BACE1 levels (BACE1): 64.6%; elevation of β-catenin levels (β-catenin): 8.8 fold; β-Catenin (ng/L) (β-catenin): 13.86 ± 0.11 ^abc ng/L; SOD(U/g) (SOD): 2.56 ± 0.54 ^abc U/g; improvement of TAC levels (TAC): ~3.3 times; TAC (µmol/g Tissue) (TAC): 31.67 ± 0.42 ^abc µmol/g Tissue; reduction in MDA brain content (MDA): 45.2%; MDA (nmol/g Tissue) (MDA): 63.68 ± 0.12 ^abc nmol/g Tissue; elevation of HO-1 mRNA expression (HO-1): 6.7 fold; HO-1 (HO-1): 0.82 ± 0.005 ^abc; histopathological finding in CC, ST, FD and SN (NP = nuclear pyknosis) [2]: normal histology of CC and FD, and moderate NP in ST and SN; histology of CC neurons and FD [2]: normal histological structures; pyknosis in ST and SN neurons [2]: moderate pyknosis |
| COc1ccc(N2CC(=O)Oc3sc4c(c3C2=O)CCCCC4)cc1 [Compound 16, 4-(4-Methoxyphenyl)-3,4,7,8,9,10-hexahydro-6H-cyclohepta[4,5]thieno[3,2-f][1,4]oxa-zepine-2,5-dione] | 71.67 ± 1.15 ^abc % | 17.44 ± 0.23 ^abc ng/mL | 4.4 fold | 52.96 ± 1.52 ^abc ng/g Tissue | 2 times | 366.4 ± 1.52 ^abc nmol/g Tissue | 3.1 fold | 134.8 ± 0.01 ^abc ng/mL | 16.83 ± 0.29 ^abc ng/g Tissue | 75% | 53.9% | 4.43 ± 0.08 ^abc | 44.5% | 4.70 ± 0.12 ^abc | 47% | 5.04 ± 0.130 ^abc | 5.2 fold | 0.63 ± 0.020 ^abc | 5.5 fold | 0.52 ± 0.01 ^abc ng/g Tissue | elevation of β-catenin levels (β-catenin): 4.6 fold; β-Catenin (ng/L) (β-catenin): 7.34 ± 0.12 ^abc ng/L; SOD(U/g) (SOD): 2.92 ± 0.20 ^abc U/g; improvement of TAC levels (TAC): 4.4 times; TAC (µmol/g Tissue) (TAC): 42.42 ± 0.84 ^abc µmol/g Tissue; reduction in MDA brain content (MDA): 72.8%; MDA (nmol/g Tissue) (MDA): 31.63 ± 0.05 ^abc nmol/g Tissue; elevation of HO-1 mRNA expression (HO-1): 4.1 fold; HO-1 (HO-1): 0.50 ± 0.020 ^abc; histopathological finding in CC, ST, FD and SN (NP = nuclear pyknosis) [2]: mild NP in neurons in CC, as well as moderate NP in neurons of ST, FD, and SN; also recorded: minor NP in the CC and significant NP in FD, ST, and SN |
